# Source: patent US20200093764A1, “TREATMENT OF ASTHMA WITH CYSTEAMINE” (CHILDREN'S HOSPITAL MEDICAL CENTER, priority 2017, published 2020)
# Experiments:
# Type in all cases: in vivo
# [1] = Drug kinetics of cysteamine in mouse serum (Example 4)
# Description: FIG. 4A is a table showing drug kinetics in mouse serum after administration of cysteamine. FIG. 4B is a chart showing the cysteamine concentrations in μmol/L over the time after the ends of cysteamine infusion in minutes.
# WT BALB/c mice [2] = assay: Cysteamine vs. corticosteroid (dexamethasone) in HDM-induced asthma (Example 5)
# Protocol: WT BALB/c mice underwent 6 intratracheal challenges to an allergen (e.g., HDM (25 μg)) to induce asthma development. Control mice underwent 6 intratracheal challenges to saline instead. When asthma was established, a subset of mice received cysteamine (50 mg/kg) treatment for seven days (on challenge days, mice received treatment 30 minutes prior to challenge). A subset of mice received corticosteroid (e.g., dexamethasone) treatment (3 mg/kg) during the last four days.
# (§1) To determine the effectiveness of the treatment, airway responsiveness was measured as follows. 24 hours after the last challenge, invasive measurements were made with the FlexiVent apparatus (SCIREQ). Dynamic resistance was assessed after exposure to increasing concentrations of aerosolized methacholine (0, 12.5, and 50 mg/kg).
# (§2) To observe Th2/Th17 cytokine production, lung cells were ex vivo stimulated with phorbol 12-myristate 13-acetate (PMA)+ionomycin (0.05 μg/mL and 0.50 m/mL, respectively) for an hour prior to the addition of Brefeldin-A for an additional two and a half hours. Cells were stained with combinations of CD4-FITC, γδT-cell receptor-PE/Cy7, CD3-AF700, CD44-Pacific Blue, and Live/dead-BV510. After fixation and premeabilization cells were intracellularly stained with IL-13-PE, IL-17A-AF647, IFN-γ-PerCP5.5. Image and data acquisition was done on a FACSCanto III and analyzed with FlowJo software.
# WT BALB/c mice [3] = assay: Cysteamine therapeutic treatment after HDM-induced asthma is established (Example 2); settings: cysteamine 50 mg/kg for seven days
# Protocol: WT BALB/c mice underwent 6 intratracheal challenges to an allergen (e.g., HDM (25 μg)) to induce asthma development. Control mice underwent 6 intratracheal challenges to saline instead. The next day a subset of mice received cysteamine (50 mg/kg) treatment for seven days (on challenge days, mice received treatment 30 minutes prior to challenge). See FIG. 2A for the treatment and challenge protocol. The mice were sacrificed 24 hours after the last challenge.
# as §1, with “([…]” for “(0,”, “[…]” for “50”
# Bronchoalveolar lavage was performed by means of tracheal cannulation. Lungs were lavaged with 1 mL of 1×HBSS. The collected BALF was centrifuged, and total cell numbers were counted with a hemocytometer. Cells were spun onto slides and stained with the HEMA3 stain set. After the slides were cover slipped and de-identified, 200 cells were counted, and the total number of each cell type was calculated.
# as §2, with “observe Th2, Th17, and Th1” for “observe Th2/Th17”, “additional 2.5” for “additional two and a half”, “and permeabilization” for “and premeabilization”, “Image an” for “Image and”
# [4] = test system: WT BALB/c and VNN1 KO mice; assay: Prophylactic cysteamine treatment in HDM-challenged experimental asthma model (Example 1); settings: for asthma development: cysteamine hydrochloride 50 mg/kg i.p. every day, HDM 25 μg i.t. 3 times a week for 3 weeks; for airway hyper-responsiveness (AHR) development: mice, oral or IP administration, methacholine challenge, FlexiVent dynamic resistance
# Description: Steroid non-responsive mice (e.g., vanin 1 (VNN1) knock-out (KO) mice) and normal mice (e.g., wild type (WT) BALB/c mice) were used in an experimental asthma model. Since VNN1 KO mice lack tissue cysteamine, these mice were used to determine whether replacement of cysteamine would be sufficient to restore responsiveness to a steroid treatment.
# WT BALB/c and VNN1 KO mice were started on cysteamine replacement treatment (e.g., as illustrated in FIG. 1A) one day prior to the start of intratracheal (i.t.) challenges. Mice then received one intraperitoneal (i.p.) injection of cysteamine hydrochloride (50 mg/kg) or saline every day. Mice were challenged 3 times a week for 3 weeks to an allergen (e.g., house dust mite (HDM, 25 μg in 50 μl saline)) or saline. A subset of mice from each group received a corticosteroid (e.g., dexamethasone (3 mg/kg)) treatment during the last 4 days of the experiment.
# To determine the effectiveness of the treatment, airway responsiveness was measured as follows. 24 hours after the last challenge, invasive measurements were made with the FlexiVent apparatus (SCIREQ). Mice were anesthetized with ketamine, xylazine, and acepromazine (100, 20, and 10 mg/mL, respectively, mixed at a ratio of 4:1:1). Mouse tracheas were cannulated with a 19-gauge blunt needle, and the mice were ventilated at 150 breaths/min and 3.0 cm H2O positive end-expiratory pressure. Two total lung capacity perturbations were then performed for airway recruitment before baseline measurement, and subsequent methacholine challenges were performed. Dynamic resistance was assessed after exposure to increasing concentrations of aerosolized methacholine (0, 12.5 and 25 mg/mL). The average of the 3 highest dynamic resistance values with a coefficient of determination of 0.9 or greater (as determined by using FlexiVent software) was used to determine the dose-response curve.
# WT BALB/c mice [5] = assay: Lower doses of cysteamine (Cystagon) to block allergen-induced asthma exacerbation (Example 3)
# Protocol: Control mice underwent 9 intratracheal challenges to saline instead. Once asthma was established, a subset of mice received cysteamine (e.g., Cystagon®, which corresponds to cysteamine bitartrate) at various doses (6.25, 12.5, 25, or 50 mg/kg) or saline vehicle intraperitoneal (i.p.) treatment 3 times every day for 2 weeks. On the 14th day, all mice received a single HDM recall challenge. Mice received scheduled i.p. treatment prior to airway responsiveness measurement.
# as §1, with “challenge” for “challenge,”, “(0, 6.25,” for “(0,”, “12.5, 25,” for “12.5,”
# as §2, with “μg/mL,” for “m/mL,”, “2.5” for “two and a half”
# WT BALB/c mice [6] = assay: Oral cysteamine treatment in HDM-induced asthma with recall challenge (Example 6)
# Protocol: Control mice underwent 9 intratracheal challenges to saline instead. Once asthma was established, a subset of mice received cysteamine (6.25 or 12.5 mg/kg) or saline vehicle oral treatment 4 times a day for 2 weeks. On the 14th day, all mice received a single HDM recall challenge. Mice received scheduled oral treatment prior to airway responsiveness measurement. To determine the effectiveness of the treatment, airway responsiveness was measured as follows. 24 hours after the last challenge invasive measurements were made with the FlexiVent apparatus (SCIREQ). Dynamic resistance was assessed after exposure to increasing concentrations of aerosolized methacholine (0, 6.25, 12.5, 25, and 50 mg/kg). Bronchoalveolar lavage was performed by means of tracheal cannulation. Lungs were lavaged with 1 mL of 1×HBSS. The collected BALF was centrifuged, and total cell numbers counted with a hemocytometer. Lungs were removed, and the upper right lobe was minced and incubated at 37° C. for 30 minutes in 1 mL of RPMI 1640 containing Liberase TL (0.5 mg/mL) and DNAse I (0.5 mg/mL). Lung cells were passed through a 70-μm cell strainer with a syringe rubber, and the strainer was washed with 5 mL of RPMI plus DNAse I media. Cells were centrifuged and re-suspended in 1 mL of PBS plus 0.5% BSA plus 2 mmol/L EDTA before being counted on a hemocytometer.
# [7] = mice with asthma, Cystagon i.p. for 2 weeks
compound,measurement,setting,value
"NCCS [Cysteamine, 2-aminoethanethiol]",cysteamine concentration in mouse serum in the time after infusion ended,"[1]; mouse serum, after end of cysteamine infusion",rapidly degraded
same,half-life,[1]; stated in Example 3 results as reason for q.i.d. dosing,short half-life
same,AHR,"WT BALB/c mice [2]; WT mice with asthma (6 i.t. HDM), cysteamine 50 mg/kg for seven days",decreased AHR
same,"presence of Th1, Th2, and Th17 cells in the lungs","WT BALB/c mice [2]; WT mice, cysteamine 50 mg/kg for seven days","significantly decreased the presence of Th1, Th2, and Th17 cells"
same,difference between the cysteamine and dexamethasone treatment groups,WT BALB/c mice [2]; cysteamine 50 mg/kg seven days vs dexamethasone 3 mg/kg last four days,no significant differences
same,asthma occurrence,WT BALB/c mice [3]; mice with asthma (6 i.t. HDM challenges),significantly decrease asthma occurrence
same,airway inflammation,WT BALB/c mice [3]; mice with asthma,reduced airway inflammation
same,presence of eosinophils and neutrophils in the bronchoalveolar lavage fluid,WT BALB/c mice [3]; mice with asthma,decreased the presence of eosinophils and neutrophils
same,presence of pathogenic T effector populations (Th2/Th17) in the lungs,"WT BALB/c mice [3]; mice with asthma, flow cytometry after PMA+ionomycin",reduction in the presence of pathogenic T effector populations (Th2/Th17)
same,airway hyper-responsiveness (AHR) development,"WT BALB/c mice [3]; mice with asthma, methacholine challenge",blocked airway hyper-responsiveness (AHR) development
same,asthma development,[4]; VNN1 KO mice,significantly prevented asthma
same,airway hyper-responsiveness (AHR) development,[4],blocked airway hyper-responsiveness (AHR) development
same,asthma development,[4]; normal (WT BALB/c) mice,significantly prevented asthma
same,reducing AHR,"WT BALB/c mice [5]; 6.25 mg/kg dose, Cystagon i.p. for 2 weeks, HDM recall challenge",effective at reducing AHR
same,dose at which maximal effectiveness on AHR was achieved,"WT BALB/c mice [5]; Cystagon i.p. for 2 weeks, doses tested 6.25, 12.5, 25, 50 mg/kg",12.5 mg/kg/day
same,presence of eosinophils and neutrophils in the bronchoalveolar lavage fluid,"WT BALB/c mice [5]; cysteamine at 6.25, 12.5, and 50 mg/kg, i.p. for 2 weeks",significantly decreased the presence of eosinophils and neutrophils
same,blocking AHR,"WT BALB/c mice [5]; mice with asthma (9 i.t. HDM), Cystagon (cysteamine bitartrate) 6.25-50 mg/kg i.p. 3 times every day for 2 weeks, HDM recall challenge",effective at blocking AHR
same,airway inflammation,WT BALB/c mice [5]; [7],reduced airway inflammation
same,presence of pathogenic T effector populations (Th2/Th17) in the lungs,WT BALB/c mice [5]; [7],significantly decreased the presence of pathogenic T effector populations (Th2/Th17)
same,AHR,"WT BALB/c mice [6]; WT mice with asthma (9 i.t. HDM), cysteamine 6.25 or 12.5 mg/kg oral 4 times a day for 2 weeks, HDM recall challenge",decreased AHR
same,"airway inflammation (BALF counts, lung cells)","WT BALB/c mice [6]; WT mice with asthma, cysteamine 6.25 or 12.5 mg/kg oral 4 times a day for 2 weeks",decreased
same,oral treatment compared with IP injection,WT BALB/c mice [6]; oral cysteamine 6.25 or 12.5 mg/kg 4 times a day for 2 weeks,equivalent to IP injection
NCCSSCCN [cystamine],airway hyper-responsiveness (AHR) development,[4],blocked airway hyper-responsiveness (AHR) development
